Assay results published in PubChem BioAssay AID2060489 (Molecular Pharmacology Branch, DTP, NCI, 2025).
pIC50: −log10 of the molar value.

Test system: 922993-354-T-J3-PDC complex spheroids, viability
Experiment: Anticancer human tumor 922993-354-T-J3-PDC patient-derived endometrial carcinoma cell line growth inhibition [GQUAD]
Details: for pIC50: curve of first compound; for viability, T/C: stronger effect = lower value
Procedure, shortened: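 Viability of tumor cells grown as complex spheroids with endothelial and stromal cells, exposed to drug combinations. Top concentration at or near clinical Cmax (else 10 microM), diluted in half-log increments.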

[1] = second compound 0.0316 µM, first compound 0.0316 µM
[2] = second compound 0.0316 µM, first compound 0.1 µM
[3] = second compound 0.0316 µM, first compound 0.316 µM
[4] = second compound 0.0316 µM, first compound 1 µM
[5] = second compound 0.0316 µM, first compound 3.16 µM
[6] = second compound 0.0316 µM, first compound 10 µM
[7] = second compound 0.1 µM, first compound 0.0316 µM
[8] = second compound 0.1 µM, first compound 0.1 µM
[9] = second compound 0.1 µM, first compound 0.316 µM
[10] = second compound 0.1 µM, first compound 1 µM
[11] = second compound 0.1 µM, first compound 3.16 µM
[12] = second compound 0.1 µM, first compound 10 µM
[13] = second compound 0.316 µM, first compound 0.0316 µM
[14] = second compound 0.316 µM, first compound 0.1 µM
[15] = second compound 0.316 µM, first compound 0.316 µM
[16] = second compound 0.316 µM, first compound 1 µM
[17] = second compound 0.316 µM, first compound 3.16 µM
[18] = second compound 0.316 µM, first compound 10 µM
[19] = second compound 1 µM, first compound 0.0316 µM
[20] = second compound 1 µM, first compound 0.1 µM
[21] = second compound 1 µM, first compound 0.316 µM
[22] = second compound 1 µM, first compound 1 µM
[23] = second compound 1 µM, first compound 3.16 µM
[24] = second compound 1 µM, first compound 10 µM
[25] = second compound 3.16 µM, first compound 0.0316 µM
[26] = second compound 3.16 µM, first compound 0.1 µM
[27] = second compound 3.16 µM, first compound 0.316 µM
[28] = second compound 3.16 µM, first compound 1 µM
[29] = second compound 3.16 µM, first compound 3.16 µM
[30] = second compound 3.16 µM, first compound 10 µM
[31] = second compound 10 µM, first compound 0.0316 µM
[32] = second compound 10 µM, first compound 0.1 µM
[33] = second compound 10 µM, first compound 0.316 µM
[34] = second compound 10 µM, first compound 1 µM
[35] = second compound 10 µM, first compound 3.16 µM
[36] = second compound 10 µM, first compound 10 µM
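Also: spheroids exposed to compounds for seven days.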
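For viability, T/C in this document: 100% = DMSO vehicle control viability.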

## COc1ncnc(C2CC2)c1-c1ncc2cnn(Cc3ccc(-c4nc(C(F)(F)F)cn4C(C)C)cc3)c2n1 + Cc1[nH]c2ccc(F)cc2c1-c1nc2c3cccnc3c3ncccc3c2[nH]1
Second compound 0.0316 µM
  pIC50: < 5.00
Second compound 0.1 µM
  pIC50: < 5.00
Second compound 0.316 µM
  pIC50: < 5.00
Second compound 1 µM
  pIC50: < 5.00
Second compound 3.16 µM
  pIC50: < 5.00
Second compound 10 µM
  pIC50: < 5.00
[1]
  viability, T/C: 94.6%
[2]
  viability, T/C: 87.3%
[3]
  viability, T/C: 80.7%
[4]
  viability, T/C: 82.3%
[5]
  viability, T/C: 90.7%
[6]
  viability, T/C: 88.8%
[7]
  viability, T/C: 123%
[8]
  viability, T/C: 99.2%
[9]
  viability, T/C: 90.1%
[10]
  viability, T/C: 70.1%
[11]
  viability, T/C: 96.2%
[12]
  viability, T/C: 93.2%
[13]
  viability, T/C: 97.2%
[14]
  viability, T/C: 111%
[15]
  viability, T/C: 94.7%
[16]
  viability, T/C: 92.2%
[17]
  viability, T/C: 91.4%
[18]
  viability, T/C: 79.8%
[19]
  viability, T/C: 98.2%
[20]
  viability, T/C: 86.6%
[21]
  viability, T/C: 107%
[22]
  viability, T/C: 88.2%
[23]
  viability, T/C: 110%
[24]
  viability, T/C: 95.1%
[25]
  viability, T/C: 80.2%
[26]
  viability, T/C: 116%
[27]
  viability, T/C: 105%
[28]
  viability, T/C: 124%
[29]
  viability, T/C: 123%
[30]
  viability, T/C: 90.6%
[31]
  viability, T/C: 104%
[32]
  viability, T/C: 103%
[33]
  viability, T/C: 116%
[34]
  viability, T/C: 92.3%
[35]
  viability, T/C: 95.7%
[36]
  viability, T/C: 97.6%

## COc1ccc([C@@H](O)c2cc(-c3ncnc4cc(N5CCOCC5)ccc34)c(F)cc2Cl)nn1 + Cc1cnc(CNC(=O)c2c(=O)c3ccc(N4CCCN(C)CC4)nc3n3c2sc2ccccc23)cn1
Second compound 0.0316 µM
  pIC50: 5.54
Second compound 0.1 µM
  pIC50: 5.99
Second compound 0.316 µM
  pIC50: 6.34
Second compound 1 µM
  pIC50: 5.40
Second compound 3.16 µM
  pIC50: 5.74
Second compound 10 µM
  pIC50: > 7.50
[1]
  viability, T/C: 84.2%
[2]
  viability, T/C: 60.5%
[3]
  viability, T/C: 88.1%
[4]
  viability, T/C: 66.6%
[5]
  viability, T/C: 49.9%
[6]
  viability, T/C: 42.9%
[7]
  viability, T/C: 79.9%
[8]
  viability, T/C: 61.7%
[9]
  viability, T/C: 67.7%
[10]
  viability, T/C: 44.3%
[11]
  viability, T/C: 44.1%
[12]
  viability, T/C: 35.6%
[13]
  viability, T/C: 66.7%
[14]
  viability, T/C: 54.3%
[15]
  viability, T/C: 48.1%
[16]
  viability, T/C: 52.6%
[17]
  viability, T/C: 45.5%
[18]
  viability, T/C: 38.1%
[19]
  viability, T/C: 57.1%
[20]
  viability, T/C: 49.5%
[21]
  viability, T/C: 56.7%
[22]
  viability, T/C: 57.7%
[23]
  viability, T/C: 58.6%
[24]
  viability, T/C: 27.1%
[25]
  viability, T/C: 51.8%
[26]
  viability, T/C: 51%
[27]
  viability, T/C: 55.7%
[28]
  viability, T/C: 52.3%
[29]
  viability, T/C: 47.8%
[30]
  viability, T/C: 14.6%
[31]
  viability, T/C: 45%
[32]
  viability, T/C: 50.7%
[33]
  viability, T/C: 46.8%
[34]
  viability, T/C: 38.6%
[35]
  viability, T/C: 30.3%
[36]
  viability, T/C: 4.3%
